Data set [1] deals with A549. The data set can be described thus: Cytotoxicity against human A549 cells assessed as reduction in cell viability incubated for 72 hrs by MTT assay. As to conditions: A549, 72 h. Format: functional, cell-based. (Tetrazolium assays rely on reduction of a dye to a coloured formazan, in cell work by metabolically active cells.)
For data set [2], the system named is MCF7. The data set can be described thus: Cytotoxicity against human MCF7 cells assessed as reduction in cell viability incubated for 72 hrs by MTT assay. Format: functional, cell-based. As to conditions: MCF7, 72 h.
Data set [3] relates to HeLa. As to the kind of experiment: Cytotoxicity against human HeLa cells assessed as reduction in cell viability incubated for 72 hrs by MTT assay. Type of data set: functional, cell-based.
The nature of data set [4]: Cytotoxicity against HEK cells assessed as reduction in cell viability upto 200 uM incubated for 72 hrs by MTT assay. Format: toxicity, cell-based. Particulars: human.
Data set [5] relates to A549. The data set can be described thus: Induction of morphological changes in human A549 cells assessed as cell shrinkage by inverted light microscopic analysis. Format: functional, cell-based.
Data set [6] has as its system A549. The data set can be described thus: Induction of morphological changes in human A549 cells assessed as membrane blebbing by inverted light microscopic analysis. Type of data set: functional, cell-based.
For data set [7], the system named is A549. As to the kind of experiment: Induction of morphological changes in human A549 cells assessed as formation of floating cells by inverted light microscopic analysis. Format: functional, cell-based.
A short description of data set [8]: Induction of morphological changes in HEK cells assessed as cell blebbing incubated for 24 hrs by inverted light microscopic analysis. Particulars: human. Type of data set: toxicity, cell-based.
Data set [9] in a line: Induction of morphological changes in HEK cells assessed as cell detachment incubated for 24 hrs by inverted light microscopic analysis. As to conditions: human. Type of data set: toxicity, cell-based.
For data set [10], the system named is A549. As to the kind of experiment: Induction of apoptosis in human A549 cells by AO/EtBr staining based fluorescence microscopic analysis. Format: functional, cell-based.
The subject of data set [11] is A549. The data set can be described thus: Induction of chromatin condensation in human A549 cells incubated for 24 hrs by DAPI staining based fluorescence microscopic analysis. Type of data set: functional, cell-based.
Data set [12] concerns A549. As to the kind of experiment: Induction of nuclear fragmentation in human A549 cells incubated for 24 hrs by DAPI staining based fluorescence microscopic analysis. Format: functional, cell-based.
For data set [13], the system named is A549. The data set can be described thus: Induction of cell cycle arrest in human A549 cells assessed as accumulation of cells at G0/G1 phase after 24 hrs by PI/RNase staining based flow cytometry analysis. Type of data set: functional. For orientation: A flow cytometer gives signals particle by particle.
For data set [14], the system named is A549. The data set can be described thus: Induction of cell cycle arrest in human A549 cells assessed as accumulation of cells at S phase after 24 hrs by PI/RNase staining based flow cytometry analysis. Format: functional.
The subject of data set [15] is A549. The data set can be described thus: Induction of cell cycle arrest in human A549 cells assessed as accumulation of cells at G2/M phase after 24 hrs by PI/RNase staining based flow cytometry analysis. Type of data set: functional.

pIC50: −log10 of the molar value. Calls of active or inactive are those of the source. The rule behind the calls is not given here.

For the compound `O=C(N/N=C1\CCNc2c1cccc2[N+](=O)[O-])c1cccnc1`, the negative logarithm of the IC50 (pIC50) in data set [1] was 4.67; in data set [2] it was 4.63; in data set [3], 4.53. For the same compound, the Activity result in [4] is given as “Non-Toxic”.
For `O=C(N/N=C1\CCNc2c1cccc2[N+](=O)[O-])c1cccs1`, in that order: 4.58, 4.64, 4.53 and “Non-Toxic”.
For `O=C(N/N=C1\CCNc2c1cccc2[N+](=O)[O-])c1ccccc1O`, in that order: 4.80, 4.69, 4.61 and “Non-Toxic”.
For `COc1cccc2c1C(=O)c1c(O)c3c(c(O)c1C2=O)C[C@@](O)(C(=O)CO)C[C@@H]3O[C@H]1C[C@H](N)[C@H](O)[C@H](C)O1` [DOXORUBICIN], the pIC50 in data set [2] is 4.94; in [3] it was 4.87. The Activity entry in data set [4] was “Non-Toxic”.
Consider `O=C(N/N=C1\CCNc2c1cc(Cl)cc2[N+](=O)[O-])c1cccs1`, for which the results for the pIC50 in [1], in [2] and in [3] were 4.77, 4.72 and 4.70, respectively. In addition, the Activity entry in data set [4] was “Non-Toxic”; in data set [5], “Dose-Dependent Effect”; in data set [6] it was “Dose-Dependent Effect”; in data set [7] it was “Dose-Dependent Effect”; in data set [8], “Non-Toxic”; in data set [9] it was “Non-Toxic”. Besides, the result in data set [10], in [11], in data set [12], in data set [13], in data set [14] and in [15] was Active.
Regarding `O=C(N/N=C1\CCNc2c1cccc2[N+](=O)[O-])c1ccco1`, the pIC50 in data set [1] was 4.74; in [2], 4.65; in data set [3] it was 4.52. Besides, the Activity result in data set [4] was “Non-Toxic”.
`O=C(N/N=C1\CCNc2c1cc(Cl)cc2[N+](=O)[O-])c1ccco1`: the pIC50 in [1] was 4.61; in data set [2] it was 4.59; in data set [3] it was 4.49. The Activity entry in data set [4] is reported as “Non-Toxic”.
Turning to `O=C(N/N=C1\CCNc2c1cc(Cl)cc2[N+](=O)[O-])c1ccccc1O`, the pIC50 in data set [1] is 4.82; in [2], 4.74; in data set [3], 4.67. Besides, the Activity entry in data set [4] is “Non-Toxic”; in data set [5] it was “Dose-Dependent Effect”; in data set [6] it was “Dose-Dependent Effect”; in [7] it was “Dose-Dependent Effect”; in [8], “Non-Toxic”; in data set [9] it was “Non-Toxic”. For the same compound, the result in data set [10], in data set [11], in [12], in data set [13], in data set [14] and in data set [15] was Active.
As for `O=C(N/N=C1\CCNc2c1cc(Cl)cc2[N+](=O)[O-])c1cccnc1`, the figures for the pIC50 in data set [1], in data set [2] and in [3] were 4.64, 4.69 and 4.57, respectively. Also, in data set [4], the Activity entry is listed as “Non-Toxic”.

One may read the pIC50 as the negative decadic logarithm of the IC50, by convention in mol/L.

These data come from ChEMBL document CHEMBL5329159, “Anti-proliferative activity of nitroquinolone fused acylhydrazones as non-small cell human lung cancer agents” (RSC Med Chem, 2023).
